Test results from PubChem BioAssay (NCI).
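Each compound was tested at five concentrations against cells in 96-well plates for 48 hours. GI50 is the concentration that inhibits growth by half. Definition used: TGI = concentration required for complete inhibition of growth.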

What was measured:
Experiment in all cases: NCI-60 cell line screen, 48 h
[1] = system: 786-0 renal
[2] = system: A498 renal
[3] = system: A549 NSCLC
[4] = system: ACHN renal
[5] = system: BT-549 breast
[6] = system: CAKI-1 renal
[7] = system: CCRF-CEM leukemia
[8] = system: COLO 205 colon
[9] = system: DU-145 prostate
[10] = system: EKVX NSCLC
[11] = system: HCC-2998 colon
[12] = system: HCT-116 colon
[13] = system: HCT-15 colon
[14] = system: HL-60(TB) leukemia
[15] = system: HOP-62 NSCLC
[16] = system: HOP-92 NSCLC
[17] = system: HS 578T breast
[18] = system: HT29 colon
[19] = system: IGROV1 ovarian
[20] = system: K-562 leukemia
[21] = system: KM12 colon
[22] = system: LOX IMVI melanoma
[23] = system: M14 melanoma
[24] = system: MALME-3M melanoma
[25] = system: MCF7 breast
[26] = system: MDA-MB-231 breast
[27] = system: MDA-MB-435
[28] = system: MOLT-4 leukemia
[29] = system: NCI-H226 lung
[30] = system: NCI-H23 lung
[31] = system: NCI-H460 lung
[32] = system: NCI-H522 lung
[33] = system: NCI/ADR-RES ovarian
[34] = system: OVCAR-3 ovarian
[35] = system: OVCAR-4 ovarian
[36] = system: OVCAR-5 ovarian
[37] = system: OVCAR-8 ovarian
[38] = system: PC-3 prostate
[39] = system: RPMI-8226 leukemia
[40] = system: RXF 393 renal
[41] = system: SF-268 CNS
[42] = system: SF-295 CNS
[43] = system: SF-539 CNS
[44] = system: SK-MEL-2 melanoma
[45] = system: SK-MEL-28 melanoma
[46] = system: SK-MEL-5 melanoma
[47] = system: SK-OV-3 ovarian
[48] = system: SN12C renal
[49] = system: SNB-19 CNS
[50] = system: SNB-75 CNS
[51] = system: SR leukemia
[52] = system: SW-620 colon
[53] = system: T-47D breast
[54] = system: TK-10 renal
[55] = system: U251 CNS
[56] = system: UACC-257 melanoma
[57] = system: UACC-62 melanoma
[58] = system: UO-31 renal

Q: Which results are given for `O=C1NC(=O)C(c2ccc(Cl)cc2)=C1Nc1ccc(Cl)c(C(=O)O)c1`?
A: GI50 [1]: > 25 µM; TGI [1]: > 25 µM; GI50 [2]: > 25 µM; TGI [2]: > 25 µM; GI50 [3]: > 25 µM; TGI [3]: > 25 µM; GI50 [4]: > 25 µM; TGI [4]: > 25 µM; GI50 [5]: > 25 µM; TGI [5]: > 25 µM; GI50 [6]: > 25 µM; TGI [6]: > 25 µM; GI50 [7]: > 25 µM; TGI [7]: > 25 µM; GI50 [8]: > 25 µM; TGI [8]: > 25 µM; GI50 [9]: > 25 µM; TGI [9]: > 25 µM; GI50 [10]: > 25 µM; TGI [10]: > 25 µM; GI50 [11]: > 25 µM; TGI [11]: > 25 µM; GI50 [12]: > 25 µM; TGI [12]: > 25 µM; GI50 [13]: > 25 µM; TGI [13]: > 25 µM; GI50 [14]: > 25 µM; TGI [14]: > 25 µM; GI50 [15]: > 25 µM; TGI [15]: > 25 µM; GI50 [16]: > 25 µM; TGI [16]: > 25 µM; GI50 [17]: > 25 µM; TGI [17]: > 25 µM; GI50 [18]: > 25 µM; TGI [18]: > 25 µM; GI50 [19]: > 25 µM; TGI [19]: > 25 µM; GI50 [20]: > 25 µM; TGI [20]: > 25 µM; GI50 [21]: > 25 µM; TGI [21]: > 25 µM; GI50 [22]: > 25 µM; TGI [22]: > 25 µM; GI50 [23]: > 25 µM; TGI [23]: > 25 µM; GI50 [24]: > 25 µM; TGI [24]: > 25 µM; GI50 [25]: > 25 µM; TGI [25]: > 25 µM; GI50 [26]: > 25 µM; TGI [26]: > 25 µM; GI50 [27]: > 25 µM; TGI [27]: > 25 µM; GI50 [28]: > 25 µM; TGI [28]: > 25 µM; GI50 [29]: > 25 µM; TGI [29]: > 25 µM; GI50 [30]: > 25 µM; TGI [30]: > 25 µM; GI50 [31]: > 25 µM; TGI [31]: > 25 µM; GI50 [32]: > 25 µM; TGI [32]: > 25 µM; GI50 [33]: > 25 µM; TGI [33]: > 25 µM; GI50 [34]: > 25 µM; TGI [34]: > 25 µM; GI50 [35]: > 25 µM; TGI [35]: > 25 µM; GI50 [36]: > 25 µM; TGI [36]: > 25 µM; GI50 [37]: > 25 µM; TGI [37]: > 25 µM; GI50 [38]: > 25 µM; TGI [38]: > 25 µM; GI50 [39]: > 25 µM; TGI [39]: > 25 µM; GI50 [40]: > 25 µM; TGI [40]: > 25 µM; GI50 [41]: > 25 µM; TGI [41]: > 25 µM; GI50 [42]: > 25 µM; TGI [42]: > 25 µM; GI50 [43]: > 25 µM; TGI [43]: > 25 µM; GI50 [44]: > 25 µM; TGI [44]: > 25 µM; GI50 [45]: > 25 µM; TGI [45]: > 25 µM; GI50 [46]: > 25 µM; TGI [46]: > 25 µM; GI50 [47]: > 25 µM; TGI [47]: > 25 µM; GI50 [48]: > 25 µM; TGI [48]: > 25 µM; GI50 [49]: > 25 µM; TGI [49]: > 25 µM; GI50 [50]: > 25 µM; TGI [50]: > 25 µM; GI50 [51]: > 25 µM; TGI [51]: > 25 µM; GI50 [52]: > 25 µM; TGI [52]: > 25 µM; GI50 [53]: > 25 µM; TGI [53]: > 25 µM; GI50 [54]: > 25 µM; TGI [54]: > 25 µM; GI50 [55]: > 25 µM; TGI [55]: > 25 µM; GI50 [56]: > 25 µM; TGI [56]: > 25 µM; GI50 [57]: > 25 µM; TGI [57]: > 25 µM; GI50 [58]: > 25 µM; TGI [58]: > 25 µM
